Assay results: publication PMC12775434, “Ultra-large virtual screening unveils potent agonists of the neuromodulatory orphan receptor GPR139” (Nature Communications, 2025)
Several values for one entry are separate records, joined by “and”; a condition that tells them apart may be missing. Equal entries are not always repeated. Where two headings read alike, the source gives them in different places.

Assays:
Type in all cases: cell-based
GPR139 [1] = target: T1, GPR139 (Homo sapiens, UniProt Q6DWJ6); assay: Ca2+ mobilization assay, agonist mode, stable GPR139-CHOk1 cell line; details: for Emax: normalized to Lundbeck Cmp 1a, read-out: Emax (%) Ca2+
T1 sequence (Q6DWJ6 1-353): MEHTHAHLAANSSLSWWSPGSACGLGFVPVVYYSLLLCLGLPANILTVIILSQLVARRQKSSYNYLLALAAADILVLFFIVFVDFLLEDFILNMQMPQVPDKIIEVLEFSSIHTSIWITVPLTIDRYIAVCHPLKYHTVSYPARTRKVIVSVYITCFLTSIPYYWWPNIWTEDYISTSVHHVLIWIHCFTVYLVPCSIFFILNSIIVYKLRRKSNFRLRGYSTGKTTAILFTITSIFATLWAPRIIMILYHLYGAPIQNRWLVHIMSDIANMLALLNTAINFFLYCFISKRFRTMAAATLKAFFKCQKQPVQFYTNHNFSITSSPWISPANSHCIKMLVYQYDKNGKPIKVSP
Procedure, shortened: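 Agonist activity of compounds is assessed in stably transfected CHO-K1 cells using the calcium dye Fluo-4 at 37 °C in HEPES-buffered HBSS (pH 7.4). Efficacy is expressed relative to the reference agonist Lundbeck Cmp 1a, set as 100%.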

GPR139 [2] = target: T1, GPR139; assay: Ca2+ mobilization assay, antagonist mode (EC80 800 nM Lundbeck Cmp 1a after 20 min preincubation), GPR139-CHOk1
Procedure, shortened: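 Fluo-4-loaded GPR139-CHOk1 cells in HEPES-buffered HBSS (pH 7.4, 2.5 mM probenecid) given test compounds at 10 µM, then after 20 min challenged with 800 nM Lundbeck Cmp 1a (EC80). Calcium fluorescence read at 37 °C, 485/525 nm.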

[3] = target: T2, human muscarinic acetylcholine M1 receptor (M1R) (Homo sapiens, UniProt P11229); assay: Ca2+ mobilization counter-screen in M1R-CHOk1 cells; details: individual replicates (Supplementary Figure 5)
T2 sequence (P11229 1-460): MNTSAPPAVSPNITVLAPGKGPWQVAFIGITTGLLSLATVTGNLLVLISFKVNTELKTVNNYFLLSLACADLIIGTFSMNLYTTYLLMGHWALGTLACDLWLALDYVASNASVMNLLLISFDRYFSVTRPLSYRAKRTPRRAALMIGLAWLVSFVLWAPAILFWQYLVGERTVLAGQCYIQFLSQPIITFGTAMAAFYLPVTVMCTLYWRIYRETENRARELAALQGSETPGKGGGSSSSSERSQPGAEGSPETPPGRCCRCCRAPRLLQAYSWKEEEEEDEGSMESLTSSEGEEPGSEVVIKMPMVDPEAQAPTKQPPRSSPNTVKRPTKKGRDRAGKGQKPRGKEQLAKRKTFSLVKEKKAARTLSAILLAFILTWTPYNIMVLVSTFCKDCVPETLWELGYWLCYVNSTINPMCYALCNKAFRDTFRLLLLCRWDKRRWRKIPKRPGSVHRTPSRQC
Method: Primary screening and pharmacological characterization of compounds were performed using a CHO-K1 cell line that stably expresses human GPR139 (GPR139-CHOk1). The GPR139-CHOk1 cell line was kindly provided by H. Lundbeck A/S, Denmark[24]. GPR139-CHOk1 cells were grown in Ham’s F-12 Kaighn’s Modification Medium (ThermoFisher #21127030) supplemented with 10% dialyzed fetal bovine serum (US origin, ThermoFisher #26400044), 100 units/mL Penicillin-Streptomycin (ThermoFisher #15140122), and 1 mg/mL Geneticin (ThermoFisher #11811031). […] M1R-CHOk1 cells were purchased from The Missouri S&T cDNA Resource Center (#CEM100TN00). M1R-CHOk1 cells were grown in Ham’s F12 Medium (ThermoFisher #21765029) supplemented with 10% fetal bovine serum (Brazilian origin, ThermoFisher #10270106), 100 units/mL Penicillin-Streptomycin, and 0.25 mg/mL Geneticin. HEK293A cells transiently transfected with GPR139 were used for additional pharmacological assessment of signaling pathways activated by GPR139. HEK239A cells were generously provided by Dr. Asuka Inoue, Tohoku University, Japan. HEK293A cells were grown in Dulbecco’s Modified Eagle Medium (ThermoFisher #31966047) supplemented with 10% dialyzed fetal bovine serum and 100 units/mL Penicillin-Streptomycin. Cell lines were maintained at 37 °C in humidified incubator equilibrated with 5% CO2.
30,000 GPR139- or M1R-CHOk1 cells/well were seeded in black clear bottom tissue culture treated 96-well plates (Greiner #655090) and grown for 20–24 h. Cells were washed with HEPES buffer (Hank’s Balanced Salt Solution (HBBS) supplemented with 20 mM HEPES, 1 mM MgCl2, and 1 mM CaCl2; pH 7.4). Cells were loaded with 50 µL of 2 µM Fluo-4 AM dye (ThermoFisher #F14202) in HEPES buffer supplemented with 2.5 mM probenecid and 0.01% Pluronic F-68 (ThermoFisher #24040032) for 1 h at 37 °C. Cells were washed with HEPES buffer. 50 µL HEPES buffer supplemented with 2.5 mM probenecid was added, and the cells were incubated for 10 min at 37 °C before measurement. 50 µL test compounds diluted in HEPES buffer from DMSO stocks (final DMSO concentration of maximally 0.3%) were added automatically after baseline measurements. The intracellular calcium mobilization was measured on a FlexStation 3 Multimode Microplate Reader (Molecular Devices) at 37 °C with filters for excitation of 485 nm and emission of 525 nm.

[4] = Agonist mode, individual replicates (Supplementary Figure 4)
[5] = Supplementary Table 2, mean ± SEM
[6] = log [Compound] M = -4.5, individual replicate columns
[7] = log [Compound] M = -5.0, individual replicate columns
[8] = log [Compound] M = -5.5, individual replicate columns
[9] = log [Compound] M = -6.0, individual replicate columns
[10] = log [Compound] M = -6.5, individual replicate columns
[11] = log [Compound] M = -7.0, individual replicate columns
[12] = log [Compound] M = -7.5, individual replicate columns
[13] = log [Compound] M = -8.0, individual replicate columns
[14] = log [Compound] M = -8.5, individual replicate columns
[15] = log [Compound] M = -9.0, individual replicate columns
[16] = individual replicates (Supplementary Figure 4)
[17] = Agonist mode, individual replicates (Supplementary Figure 1)
[18] = individual replicates (Supplementary Figure 1)

Row | SMILES | Ca2+ signal (% of Cmp 1a) (GPR139 [1]; [4]) | EC50 (GPR139 [1]; GPR139-CHOk1, read-out: EC50, Ca2+ mobilization) | Emax (GPR139 [1]; [5]) | Ca2+ signal (% of Cmp 1a) (GPR139 [1]; [6]) | Ca2+ signal (% of Cmp 1a) (GPR139 [1]; [7]) | Ca2+ signal (% of Cmp 1a) (GPR139 [1]; [8]) | Ca2+ signal (% of Cmp 1a) (GPR139 [1]; [9]) | Ca2+ signal (% of Cmp 1a) (GPR139 [1]; [10]) | Ca2+ signal (% of Cmp 1a) (GPR139 [1]; [11]) | Ca2+ signal (% of Cmp 1a) (GPR139 [1]; [12]) | Ca2+ signal (% of Cmp 1a) (GPR139 [1]; [13]) | Ca2+ signal (% of Cmp 1a) (GPR139 [1]; [14]) | Ca2+ signal (% of Cmp 1a) (GPR139 [1]; [15]) | Ca2+ signal (% of Cmp 1a) (GPR139 [2]; [16]) | Ca2+ signal (% of Carbachol) [3] | EC50 (GPR139 [1]; Supplementary Table 2, mean ± SEM, read-out: pEC50 Ca2+ (converted)) | Ca2+ signal (% of Cmp 1a) (GPR139 [1]; [17]) | Ca2+ signal (% of Cmp 1a) (GPR139 [2]; [18]) | Ca2+ signal (% of Cmp 1a) (GPR139 [1]; primary screen, 10 µM compound, agonist mode, three columns = independent experiments)
1 | Cc1cccc(-c2nc(CC(=O)NC(C)c3ccccc3)no2)c1 (stereo not shown) [Compound 1.3, CC(C1=CC=CC=C1)NC(CC2=NOC(C3=CC(C)=CC=C3)=N2)=O] | 106 % of Cmp 1a and 102 % of Cmp 1a and 119 % of Cmp 1a | 0.1 µM | 109 ± 6% | 95 % of Cmp 1a and 109 % of Cmp 1a and 110 % of Cmp 1a and 97 % of Cmp 1a | 91 % of Cmp 1a (2×) and 123 % of Cmp 1a and 104 % of Cmp 1a | 80 % of Cmp 1a and 126 % of Cmp 1a and 100 % of Cmp 1a and 85 % of Cmp 1a | 76 % of Cmp 1a and 101 % of Cmp 1a and 90 % of Cmp 1a and 71 % of Cmp 1a | 55 % of Cmp 1a and 89 % of Cmp 1a and 72 % of Cmp 1a and 60 % of Cmp 1a | 36 % of Cmp 1a and 68 % of Cmp 1a and 56 % of Cmp 1a and 52 % of Cmp 1a | 12 % of Cmp 1a and 48 % of Cmp 1a (2×) and 34 % of Cmp 1a | 5.33 % of Cmp 1a and 18 % of Cmp 1a and 26 % of Cmp 1a and 21 % of Cmp 1a | 5 % of Cmp 1a and 3.67 % of Cmp 1a and 12 % of Cmp 1a and 9 % of Cmp 1a | -3 % of Cmp 1a and 12 % of Cmp 1a and 5.67 % of Cmp 1a and 8 % of Cmp 1a | 13 % of Cmp 1a and 0.333 % of Cmp 1a and -11 % of Cmp 1a | 24 % of Carbachol and -2 % of Carbachol and 12 % of Carbachol |  |  |  | 
2 | Cc1cc(-c2nc(CC(=O)NC(C)c3ccccc3)no2)cs1 (stereo not shown) [Compound 1.4, CC(C1=CC=CC=C1)NC(CC2=NOC(C3=CSC(C)=C3)=N2)=O] | 100 % of Cmp 1a and 61 % of Cmp 1a and 92 % of Cmp 1a |  | 114 ± 6% | 106 % of Cmp 1a and 107 % of Cmp 1a and 115 % of Cmp 1a and 110 % of Cmp 1a | 109 % of Cmp 1a and 91 % of Cmp 1a and 131 % of Cmp 1a and 113 % of Cmp 1a | 103 % of Cmp 1a and 82 % of Cmp 1a and 119 % of Cmp 1a and 123 % of Cmp 1a | 107 % of Cmp 1a and 79 % of Cmp 1a and 97 % of Cmp 1a and 127 % of Cmp 1a | 81 % of Cmp 1a and 66 % of Cmp 1a and 80 % of Cmp 1a and 103 % of Cmp 1a | 48 % of Cmp 1a and 47 % of Cmp 1a and 54 % of Cmp 1a and 90 % of Cmp 1a | 24 % of Cmp 1a and 22 % of Cmp 1a and 35 % of Cmp 1a and 47 % of Cmp 1a | 5.33 % of Cmp 1a and 2.67 % of Cmp 1a and 18 % of Cmp 1a and 26 % of Cmp 1a | 2.67 % of Cmp 1a (2×) and 7 % of Cmp 1a (2×) | 6 % of Cmp 1a and 1.67 % of Cmp 1a and 13 % of Cmp 1a and 4.33 % of Cmp 1a | -0.333 % of Cmp 1a and -4 % of Cmp 1a and -17 % of Cmp 1a | -1 % of Carbachol and 20 % of Carbachol and -5 % of Carbachol | 0.1 µM |  |  | 
3 | Cc1ccc(C(=O)Nc2cccc(-c3nnc[nH]3)c2)c2c1CCC2 [Compound 61, CC=1C=CC(C(=O)NC=2C=CC=C(C2)C3=NN=CN3)=C4CCCC41] |  |  |  |  |  |  |  |  |  |  |  |  |  |  |  |  | -6 % of Cmp 1a and -0.901 % of Cmp 1a and -0.172 % of Cmp 1a | 50.3835 % of Cmp 1a and 83.4509 % of Cmp 1a and 72.5179 % of Cmp 1a | 
4 | CCN(C(=O)c1cc(Cc2ccccc2)n[nH]1)c1ccc(F)cc1 [Compound 62, CCN(C(=O)C1=CC(CC=2C=CC=CC2)=NN1)C=3C=CC(F)=CC3] |  |  |  |  |  |  |  |  |  |  |  |  |  |  |  |  | 3 % of Cmp 1a and 5.34 % of Cmp 1a and 3.55 % of Cmp 1a | 74.8769 % of Cmp 1a and 70.0616 % of Cmp 1a and 70.7351 % of Cmp 1a | 3 % of Cmp 1a and 5.34 % of Cmp 1a and 3.55 % of Cmp 1a
5 | C[C@@H](NC(=O)CSc1nc2cc(Cl)cnc2[nH]1)c1ccccc1 [Compound 63, C[C@@H](NC(=O)CSC1=NC=2C=C(Cl)C=NC2N1)C=3C=CC=CC3] |  |  |  |  |  |  |  |  |  |  |  |  |  |  |  |  | 14 % of Cmp 1a and 5 % of Cmp 1a and 16 % of Cmp 1a | 69.704 % of Cmp 1a and 80.7602 % of Cmp 1a and 71.5084 % of Cmp 1a | 
